From patent US9586896B2, “Nitroxyl donors with improved therapeutic index” (Cardioxyl Pharmaceuticals, Inc., priority 2013, dated 2017)

Assays:
dogs [1] = assay: 72-hour continuous infusion investigative studies of CXL-1020 in dogs (implanted catheter); format: in vivo; conditions: 72-hour infusion
Protocol: To determine the cause of the inflammation and hind limb swelling, a series of 72-hour continuous infusion investigative studies were conducted over the following 6 months. […] The first site of inflammation, the catheter insertion site, caused the dog hind limb swelling and inflammation observed in the early-terminated follow-up study. Increasing infusate pH from 4 to 6 decreased inflammation, improving the inflammatory profile by approximately 3-fold.

dogs [2] = assay: 14-day continuous infusion tolerance study of CXL-1020 in dogs; format: in vivo
Protocol: During in vivo trials of the nitroxyl donor, CXL-1020 (N-hydroxy-2-methanesulfonylbenzene-1-sulfonamide), a 14-day study was conducted to evaluate tolerance in dogs treated with continuous infusions of CXL-1020 at dose rates of up to 90 μg/kg/min. […] To further investigate this undesirable side-effect, a follow-up 14-day study in dogs was initiated.

healthy volunteers = assay: 24-hour continuous infusion dose escalation study of CXL-1020 in healthy volunteers; format: in vivo, humans; conditions: forearm vein infusion
Protocol: To determine whether a local phlebitis would occur in humans upon longer duration dosing, a longer duration study was conducted in healthy volunteers. The longer duration study included a dose escalation study in which cohorts of 10 volunteers were to be sequentially administered a 24-hour continuous infusion of CXL-1020 at the dose rates of 10, 20, and 30 μg/kg/min with a safety assessment between each cohort. Each cohort consisted of 2 placebo and 8 active treatments with a sentinel pair of 1 active and 1 placebo followed by the main group of 1 placebo and 7 active treatments. The infusion was via a percutaneous catheter inserted into a forearm vein. The catheter was switched to the contralateral arm after 12 hours of infusion.

[3] = system: heart failure canines (microembolization model); assay: Hemodynamic efficacy in canine microembolization heart failure model; format: in vivo, mongrel dogs; conditions: 3 or 10 μg/kg/min infusion, FIG. 3
Protocol: Heart failure was produced using healthy, conditioned, purpose-bred mongrel dogs (20-26 kg) using a sequential microembolization model. Coronary microembolization was performed until LV-ejection fraction (determined angiographically under anesthesia) was approximately 30% or lower. Two weeks were then provided after the last microembolization to ensure stabilization of each animal prior to initiating experiments.
An initial dose-finding study (2-100 μg/kg/min for 40 min) was performed in 3 dogs to identify therapeutically relevant doses of a compound of formula (1). […] Only one dose was studied on a given day, the other at least one-week later, and the order randomized. […]
LV end-systolic volume (ESV) and end-diastolic volumes (EDV) were calculated from ventriculograms using the area-length method. […] LV fractional area of shortening (FAS) was measured from LV short axis view at the level of papillary muscles obtained from 2-dimensional echocardiograms. Measured indexes of LV diastolic function included deceleration time of mitral inflow velocity (DT), ratio of the integral of early mitral inflow velocity (Ei) to velocity during atrial contraction (Ai) (Ei/Ai) and LV end-diastolic circumferential wall stress (EDWS).
Measurements of myocardial oxygen consumption were performed at baseline and at 4 hours after 10 μg/kg/min infusion. […] Oxygen content was determined with a hemoximeter. […]

Row | Compound | improvement of the inflammatory profile on increasing infusate pH from 4 to 6 (dogs [1]) | dose rates at which significant undesirable side effects were still demonstrated (dogs [1]; infusate pH 6) | dose rates causing clinical pathology changes consistent with an inflammatory process (dogs [1]; pH 4 formulation, 1:1 molar CXL-1020:CAPTISOL in 5% dextrose) | dose rate tolerated (dogs [2]) [µg/kg/min] | tolerability at 10 μg/kg/min for 24-hours (healthy volunteers; 10 μg/kg/min) | findings at 20 μg/kg/min for 24-hours (healthy volunteers; 20 μg/kg/min) | hemodynamic activity relative to CXL-1020 [3]
1 | CS(=O)(=O)c1ccccc1S(=O)(=O)NO [CXL-1020, N-hydroxy-2-methanesulfonylbenzene-1-sulfonamide] | approximately 3 fold | greater than or equal to 3 μg/kg/min | greater than or equal to 0.03 μg/kg/min | 60 | well tolerated | mild findings (either clinical signs and/or changes in clinical pathology) in all 8 subjects consistent with infusion site phlebitis | 
2 | Cc1ccc(S(=O)(=O)NO)o1 [Compound (1), N-Hydroxy-5-methylfuran-2-sulfonamide] |  |  |  |  |  |  | comparable hemodynamic activity to CXL-1020
